Data: US20030232801A1, “Identification of compounds for the treatment or prevention of proliferative diseases” (priority 2001, published 2003)

Legend:
[1] = tested on: 6D-2 cells (MCF-7 human breast cancer cells stably transfected with luciferase linked to the 5′ and 3′UTRs of human HER2); test: Cellular toxicity, MTS cell viability, 6D-2 cells; format: cell-based; conditions: for IC50: MTS viability
Description: (§1) 6D-2 cells (MCF-7 human breast cancer cells stably transfected with luciferase linked to the 5′ and 3′UTRs of human HER2) were added to 96-well plates at 7500 cells per well in 200 μL medium and incubated for 24 hours at 100% humidity, 5% CO2, and 37° C. Compounds were diluted from DMSO stock solutions into medium and were added at various concentrations. The 6D-2 cells were incubated for 16 hours at which time the volume of medium in each well was reduced to 100 μL using a plate washer. 20 μL of MTS cell viability reagent (Promega, Madison, Wis.) was then added to each well, and the plates were incubated for 1-4 hours. A plate containing wells with 100 μL medium plus MTS reagent was prepared to determine the background reading. The plates were read on the Wallac 2 plate reader (PerkinElmer Life Science, Boston, Mass.) at 490 nm. Percent viability was calculated as (O.D. of compound treated cells−background O.D.)/(O.D. of DMSO treated cells−background O.D.)×100. MT-4 cells (adult human T-cell leukemia cells) were plated at 1.5×10^5 cells per well in 200 μL medium and incubated for at least one hour before the addition of compounds. The cells were incubated for 5 days at 100% humidity, 5% CO2, and 37° C. Cell viability was determined as described for 6D-2 cells.
(§2) Compounds of the invention containing a pyrrolidine substituent were tested for toxicity to cancerous and non-cancerous cells. 6D-2 cellular activity is representative of potency as an antitumor agent. MT-4 cellular activity is representative of general toxicity. A high IC50 for MT-4 cells and a low IC50 for 6D-2 cells is indicative of a compound of potential therapeutic use in treating or preventing proliferative diseases, such as cancer.

[2] = tested on: MT-4 cells (adult human T-cell leukemia cells); test: Cellular toxicity, MTS cell viability, MT-4 cells; format: cell-based; conditions: for IC50: 5 day, MTS viability
Description: as §1, §2

[3] = Cellular toxicity, MTS cell viability, 6D-2 cells; format: cell-based, human; conditions: Homo sapiens, MCF7, MTS viability
Description: as §1, §2

CC(=O)Nc1ccc(NC2=C(N3CCCC3)C(=O)c3cnccc3C2=O)cc1 [Example 3A, 6-(N′-4-aminoacetanilide)-7-pyrrolidino-5,8-isoquinolinedione]
IC50 [1]: 370 nM
IC50 [2]: 5160 nM

CC(=O)Nc1ccc(NC2=C(N3CCCC3)C(=O)c3ccncc3C2=O)cc1 [Example 3B, 7-(N′-4-aminoacetanilide)-6-pyrrolidino-5,8-isoquinolinedione]
IC50 [1]: 4080 nM
IC50 [2]: 6790 nM

O=C1C(Nc2ccc(F)cc2)=C(N2CCCC2)C(=O)c2cnccc21 [Example 4, 6-(N′-4-fluoroanilino)-7-pyrrolidino-5,8-isoquinolinedione]
IC50 [1]: 1480 nM
IC50 [2]: 2510 nM

O=C1C(Nc2ccc(F)cc2)=C(N2CCCC2)C(=O)c2ncccc21 [Example 5, 6-(N-4-fluoroanilino)-7-pyrrolidino-5,8-quinolinedione]
IC50 [1]: 770 nM
IC50 [2]: 6690 nM

CC(C)(C)OC(=O)Nc1ccc(NC2=C(N3CCCC3)C(=O)c3ccccc3C2=O)cc1 [Example 6, N-4-((3-pyrrolidino-1,4-naphthalenedion-2-yl)amino)phenyl-O-1.1-dimethylethylcarbamate]
IC50 [1]: 570 nM
IC50 [2]: 2780 nM

Nc1ccc(NC2=C(N3CCCC3)C(=O)c3ccccc3C2=O)cc1 [Example 7, 2-(N-4-aminoanilino)-3-pyrrolidino-1,4-naphthoquinone]
IC50 [1]: 70 nM
IC50 [2]: 160 nM

COc1ccc(NC2=C(N3CCCC3)C(=O)c3ccccc3C2=O)cn1 [Example 8, 2-(N-2-methoxy-5-aminopyridine)-3-pyrrolidino-1,4-naphthoquinone]
IC50 [1]: 120 nM
IC50 [2]: 1110 nM

COc1ccc(NC2=C(N3CCCC3)C(=O)c3ccccc3C2=O)cc1 [Example 9, 2-(N-4-methoxyanilino)-3-pyrrolidino-1,4-naphthoquinone]
IC50 [1]: 100 nM
IC50 [2]: 520 nM

Cc1cc(=O)oc2cc(NC3=C(N4CCCC4)C(=O)c4ccccc4C3=O)ccc12 [Example 10, 7-((3-pyrrolidino-1,4-naphthalenedion-2-yl)amino)-4-methylcoumarin]
IC50 [3]: 6780 nM
IC50 ([2]; Homo sapiens, MT4, 120 h): 1180 nM

CC(C)NC(=S)Nc1ccc(NC2=C(N3CCCC3)C(=O)c3ccccc3C2=O)cc1 [Example 11, N^1-4-((3-pyrrolidino-1,4-naphthalenedion-2-yl)amino)phenyl-N^2-(1-methylethyl)thiourea]
IC50 [1]: 330 nM
IC50 [2]: 6150 nM

CNC(=S)Nc1ccc(NC2=C(N3CCCC3)C(=O)c3ccccc3C2=O)cc1 [Example 12, N^1-4-((3-pyrrolidino-1,4-naphthalenedion-2-yl)amino)phenyl-N^2-methylthiourea]
IC50 [1]: 100 nM
IC50 [2]: 8700 nM

NCC(=O)c1cccc(NC2=C(N3CCCC3)C(=O)c3ccccc3C2=O)c1 [Example 13, 2-(N-3-aminoacetylanilino)-3-pyrrolidino-1,4-naphthoquinone]
6D-2 24 hr, percent @.10 μM [1]: 70% @.10 μM
MT-4 5 day, percent @.10 μM [2]: 80% @.10 μM

O=C1C(Nc2ccccc2)=C(N2CCCC2)C(=O)c2ccccc21 [Example 14, 2-(N-anilino)-3-pyrrolidino-1,4-naphthoquinone]
IC50 [1]: 760 nM
IC50 [2]: 2100 nM

Nc1ccc(C(=O)N(C2=C(N3CCCC3)C(=O)c3ccccc3C2=O)c2ccccc2)cc1 [Example 15, 2-(N-4-aminobenzoylanilino)-3-pyrrolidino-1,4-naphthoquinone]
6D-2 24 hr, percent @.10 μM [1]: 60% @.10 μM
IC50 ([2]; Homo sapiens, MT4, 120 h): 1000 nM

O=C1C(Nc2cccc(F)c2)=C(N2CCCC2)C(=O)c2ccccc21 [Example 16, 2-(N-3-fluoroanilino)-3-pyrrolidino-1,4-naphthoquinone]
IC50 [1]: 1360 nM
MT-4 5 day, percent @.10 μM [2]: 68% @.10 μM

CN(C)C1=C(Nc2cccc(F)c2)C(=O)c2ccccc2C1=O [Example 17, 2-(N-3-fluoroanilino)-3-dimethylamino-1,4-naphthoquinone]
IC50 [1]: 10000 nM
MT-4 5 day, percent @.10 μM [2]: 100% @.10 μM

CC1CCCN1C1=C(Nc2ccc(F)cc2)C(=O)c2ccccc2C1=O (stereo not shown) [Example 18, 2-(N-4-fluoroanilino)-3-(2-methylpyrrolidino)-1,4-naphthoquinone]
IC50 [1]: 2630 nM
IC50 [2]: 5240 nM

COC[C@@H]1CCCN1C1=C(Nc2ccc(F)cc2)C(=O)c2ccccc2C1=O [Example 19, 2-(N-4-fluoroanilino)-3-(2-(S)-methoxymethylpyrrolidino)-1,4-naphthoquinone]
IC50 [1]: 8950 nM
MT-4 5 day, percent @.10 μM [2]: 97% @.10 μM

O=C(Nc1ccc(NC2=C(N3CCCC3)C(=O)c3ccccc3C2=O)cc1)c1ccco1 [Example 20, 2-(4-(2-furanoylamino)phenylamino)-3-pyrrolidino-1,4-naphthoquinone]
IC50 [3]: 60 nM
IC50 ([2]; Homo sapiens, MT4, 120 h): 110 nM

CC(C)OC(=O)Nc1ccc(NC2=C(N3CCCC3)C(=O)c3ccccc3C2=O)cc1 [Example 21, N-4-((3-pyrrolidino-1,4-naphthalenedion-2-yl)amino)phenyl-O-(1-methylethyl)carbamate]
IC50 [1]: 1380 nM
IC50 [2]: 2000 nM

COC(=O)Nc1ccc(NC2=C(N3CCCC3)C(=O)c3ccccc3C2=O)cc1 [Example 22, N-4-((3-pyrrolidino-1,4-naphthalenedion-2-yl)amino)phenyl-O-methylcarbamate]
IC50 [1]: 140 nM
IC50 [2]: 470 nM

COC(=O)Nc1cccc(NC2=C(N3CCCC3)C(=O)c3ccccc3C2=O)c1 [Example 23, N-3-((3-pyrrolidino-1,4-naphthalenedion-2-yl)amino)phenyl-O-methylcarbamate]
IC50 [1]: 870 nM
IC50 [2]: 10200 nM

CC(C)NC(=O)Nc1ccc(NC2=C(N3CCCC3)C(=O)c3ccccc3C2=O)cc1 [Example 24, N′-4-((3-pyrrolidino-1,4-naphthalenedion-2-yl)amino)phenyl-N^2-(1-methylethyl)urea]
IC50 [1]: 180 nM
IC50 [2]: 1680 nM

O=C(Nc1ccccc1)Nc1ccc(NC2=C(N3CCCC3)C(=O)c3ccccc3C2=O)cc1 [Example 25, N^1-4-((3-pyrrolidino-1,4-naphthalenedion-2-yl)amino)phenyl-N^2-phenylurea]
IC50 [1]: 1060 nM
IC50 [2]: 2220 nM

CNC(=O)Nc1ccc(NC2=C(N3CCCC3)C(=O)c3ccccc3C2=O)cc1 [Example 26]
IC50 [1]: 110 nM
IC50 [2]: 750 nM

COCCNC(=O)Nc1ccc(NC2=C(N3CCCC3)C(=O)c3ccccc3C2=O)cc1 [Example 27, N′-4-((3-pyrrolidino-1,4-naphthalenedion-2-yl)amino)phenyl-N^2-(2-methoxyethyl)urea]
IC50 [1]: 210 nM
IC50 [2]: 560 nM

NC(=O)Nc1ccc(NC2=C(N3CCCC3)C(=O)c3ccccc3C2=O)cc1 [Example 28, 2-(N-(4-carbamidoanilino))-3-pyrrolidino-1,4-naphthoquinone]
IC50 [1]: 310 nM
MT-4 5 day, percent @ 10 μM [2]: 56% @ 10 μM

O=C1C(Nc2ccc(F)c(F)c2)=C(N2CCCC2)C(=O)c2ccccc21 [Example 29, 2-(N-3,4-difluoroanilino)-3-pyrrolidino-1,4-naphthoquinone]
IC50 [1]: 2340 nM
MT-4 5 day, percent @ 10 μM [2]: 40% @ 10 μM

O=C1C(Nc2ccc(F)cc2)=C(N2CCCC2)C(=O)c2ccccc21 [Example 30, 2-(N-4-Fluoroanilino)-3-pyrrolidino-1,4-naphthoquinone]
IC50 [1]: 520 nM
IC50 [2]: 4470 nM

Nc1ccc2c(c1)C(=O)C(N1CCCC1)=C(Nc1ccc(F)c(F)c1)C2=O [Example 31, 6-Amino-2-(N-3,4-difluoroanilino)-3-pyrrolidino-1,4-naphthoquinone]
IC50 [1]: 1500 nM
IC50 [2]: 300 nM

COC(=O)Nc1ccc2c(c1)C(=O)C(N1CCCC1)=C(Nc1ccc(F)c(F)c1)C2=O [Example 32, 6-[(methoxycarbonyl)amino]-2-(N-3,4-difluoroanilino)-3-pyrrolidino-1,4-naphthoquinone]
IC50 [1]: 4000 nM
IC50 [2]: 7000 nM

O=C1C(Nc2ccc(F)c(F)c2)=C(N2CCCC2)C(=O)c2ccc([N+](=O)[O-])cc21 [Example 33, 7-Nitro-2-(N-3,4-difluoroanilino)-3-pyrrolidino-1,4-naphthoquinone]
IC50 [1]: 1000 nM
IC50 [2]: 700 nM
